Tested on: involucrin
Experiment: Involucrin expression in normal human keratinocytes (immunolabeling)
Assay type: cell-based
Details: NHKs, 12 μg/ml, treatment 5 days
Procedure: The NHKs are cultured at passage 3 in complete KSFM medium in a T75 flask. At the pre-confluence stage, the NHKs are trypsinized and seeded in a proportion of 20 000 cells per well in 8-well Lab-Tek II culture systems (Nalge Nunc International), 4 wells per treatment condition. At 80% confluence, the cells are treated for 5 days with the various compositions of active agents (VT1, VT2, VT3, each at 12 μg/ml) until the post-confluence stage is reached. Vitactyl® clair (extract of Malva sylvestris, Silab) at 3% is used as a positive control.
The cells are rinsed with PBS (PBS Tablets, Invitrogen GIBCO) and then fixed with formalin (Formalin Solution, 10%, Neutral Buffered, Sigma) for 10 minutes.
After rinsing with PBS, the culture chambers are filled with a 0.1% Triton solution (Triton X-100, Sigma) for 10 minutes in order to permeabilize the membranes, and then rinsed twice with PBS. The cells are then covered with a solution of PBS/1% BSA (BSA, Sigma) for 30 minutes at ambient temperature. The PBS/BSA solution is removed from the slides by inclining them on absorbent paper. […]
For each condition, four photos are taken in green fluorescence (expression of the markers) with the ×20 objective. […]
The photos are analyzed using the Leica QWin image analysis software. A program is created in order to quantify the expression of these differentiation markers.

Q: For `O=C(CC(O)(Cc1ccc(O)cc1)C(=O)OCc1ccc(O[C@@H]2O[C@H](CO)[C@@H](O)[C@H](O)[C@H]2O)cc1)OCc1ccc(O[C@@H]2O[C@H](CO)[C@@H](O)[C@H](O)[C@H]2O)cc1` (stereo partly drawn) [VT2, 1,4-bis(4-β-D-glucopyranosyloxybenzyl)-(2R)-2-(p-hydroxybenzyl) malate], which “Involucrin expression compared with positive control Vitactyl clair at 3%” value is on record?
A: The value was “greater than that of the positive control”.
